# Key:
# [1] = Distribution coefficient, logD of the compound at pH 7.4; type: physicochemical; details: octanol/water
# [2] = Aqueous solubility of the compound at pH 7.4; type: physicochemical; details: buffer
# [3] = Intrinsic clearance in rat hepatocytes assessed per 10^6 cells; type: ADME, cell-based, Hepatocyte; details: read-out: CLH
# [4] = Clearance in iv dosed rat; type: ADME, organism-based; details: in vivo
# [5] = Volume of distribution at steady state in iv dosed rat; type: ADME, organism-based; details: in vivo, read-out: Vdss
# [6] = Half life in iv dosed rat; type: ADME, organism-based; details: in vivo
# [7] = Acid dissociation constant, pKa of the compound; type: physicochemical
# [8] = Oral bioavailability in rat; type: ADME, organism-based; details: in vivo
# [9] = Clearance in iv dosed dog; type: ADME, organism-based, Canis lupus familiaris; details: in vivo
# [10] = Volume of distribution at steady state in iv dosed dog; type: ADME, organism-based, Canis lupus familiaris; details: in vivo, read-out: Vdss
# [11] = Half life in iv dosed dog; type: ADME, organism-based, Canis lupus familiaris; details: in vivo
# [12] = Apparent permeability of the compound by PAMPA; type: ADME
# [13] = Clearance in iv dosed rat relative to hepatic blood flow; type: ADME, organism-based; details: in vivo
# [14] = Clearance in iv dosed dog relative to hepatic blood flow; type: ADME, organism-based, Canis lupus familiaris; details: in vivo
logD [1],solubility ([2]; read-out: solubility) [µM],hepatocyte CLint [3] [µL/min/1e6 cells],SMILES,further results
1.5,> 1000,< 1,Cc1ccc(C(=O)NC2CC2)cc1-n1ccnc(NC2CC2)c1=O,
2.6,23,4.5,Cc1ccc(C(=O)NC2CC2)cc1-n1ccnc(NCc2ccccc2)c1=O,
2.9,< 19,3.4,COc1ccc(CNc2nccn(-c3cc(C(=O)NC4CC4)ccc3C)c2=O)cc1,
2,843,18,Cc1ccc(C(=O)NC2CC2)cc1-n1ccnc(N[C@@H](c2ccccc2)[C@@H](C)CN(C)C)c1=O,
1.5,783,14,Cc1ccc(C(=O)NC2CC2)cc1-n1ccnc(N[C@@H](c2ccccc2)[C@@H](C)CN2CCN[C@@H](C)C2)c1=O,
3,392,130,Cc1ccc(C(=O)NC2CC2)cc1-n1ccnc(NCCc2ccccc2)c1=O,
2.9,734,17,Cc1ccc(C(=O)NC2CC2)cc1-n1ccnc(N[C@H](C)c2ccccc2)c1=O,
3.1,50,< 3,Cc1ccc(C(=O)NC2CC2)cc1-n1ccnc(N[C@@H](C)c2ccccc2)c1=O,
2.6,870,19,Cc1ccc(C(=O)NC2CC2)cc1-n1ccnc(N[C@@H](c2ccccc2)[C@@H](C)CO)c1=O,
2.3,854,30,Cc1ccc(C(=O)NC2CC2)cc1-n1ccnc(N[C@@H](c2ccccc2)[C@@H](C)CN2CCN(C)CC2)c1=O,
0.4,,,Cc1ccc(C(=O)NC2CC2)cc1-n1ccnc(N)c1=O,
1.6,670,55,Cc1ccc(C(=O)NC2CC2)cc1-n1ccnc(NCc2ccccc2OCCN2CCCC2)c1=O,
2.3,> 1000,157,Cc1ccc(C(=O)NC2CC2)cc1-n1ccnc(NC(C)(C)c2ccccc2OCCN2CCCC2)c1=O,clearance [4]: 99 mL/min/kg; Vd [5]: 16.6 L/kg; half-life [6]: 8 h
3.7,168,140,Cc1ccc(C(=O)NC2CC2)cc1-n1ccnc(N[C@@H]2CCCc3ccccc32)c1=O,
3,908,61,Cc1ccc(C(=O)NC2CC2)cc1-n1ccnc(N[C@@H](c2ccccc2)[C@@H](C)CN2CCCCC2)c1=O,clearance [4]: 50 mL/min/kg; Vd [5]: 5.5 L/kg; half-life [6]: 7.8 h; pKa [7]: 8.4
1.3,636,15,Cc1ccc(C(=O)NC2CC2)cc1-n1ccnc(N[C@@H](c2ccccc2)[C@@H](C)CN2CCNCC2)c1=O,
3.7,340,7.6,Cc1ccc(C(=O)NC2CC2)cc1-n1ccnc(NCC2CCCCC2)c1=O,
1.6,847,8.5,Cc1ccc(C(=O)NC2CC2)cc1-n1ccnc(N[C@@H](c2ccccc2)[C@@H](C)CN2CCN[C@H](C)C2)c1=O,
3.1,,19,Cc1ccc(C(=O)NC2CC2)cc1-n1ccnc(NC(C)(C)c2ccccc2)c1=O,
3.3,270,26,CC[C@@H](Nc1nccn(-c2cc(C(=O)NC3CC3)ccc2C)c1=O)c1ccccc1,
3.2,54,59,Cc1ccc(C(=O)NC2CC2)cc1-n1ccnc(N(C)Cc2ccccc2)c1=O,
2.3,800,35,CC[C@@H](Nc1nccn(-c2cc(C(=O)NC3CC3)ccc2C)c1=O)c1ccccc1OCCN1CCCC1,
2.7,351,7.4,COc1cccc(CNc2nccn(-c3cc(C(=O)NC4CC4)ccc3C)c2=O)c1,
3.5,216,> 300,Cc1ccc(C(=O)NC2CC2)cc1-n1ccnc(N[C@@H](c2ccccc2)[C@@H](C)CN2CCOCC2)c1=O,
,258,22,COc1ccccc1CNc1nccn(-c2cc(C(=O)NC3CC3)ccc2C)c1=O,
1.6,650,20,CNCCOc1ccccc1C(C)(C)Nc1nccn(-c2cc(C(=O)NC3CC3)ccc2C)c1=O,clearance [4]: 59 mL/min/kg; Vd [5]: 31.6 L/kg; half-life [6]: 13 h; bioavailability [8]: 6%; clearance [9]: 16.5 mL/min/kg; Vd [10]: 6.4 L/kg; half-life [11]: 6.6 h; Papp [12]: 4.2 ×10⁻⁶ cm/s; pKa [7]: 9.1; CL [13]: 69%; CL [14]: 54%
3,405,3.3,Cc1ccc(C(=O)NC2CC2)cc1-n1ccnc(Nc2ccccc2)c1=O,
1.1,> 1000,1.1,CNc1nccn(-c2cc(C(=O)NC3CC3)ccc2C)c1=O,
3.3,344,120,Cc1ccc(C(=O)NC2CC2)cc1-n1ccnc(N2CCCC2c2ccccc2)c1=O (racemic),
,,< 3,Cc1ccc(C(=O)NC2CC2)cc1-n1cnc2ccc(N3CCN(C)CC3)cc2c1=O [AZD-6703],solubility [2]: 730 µM; half-life [6]: 0.7 h

# From ChEMBL document CHEMBL4725297, “The discovery and evaluation of 3-amino-2(1H)-pyrazinones as a novel series of selective p38α MAP kinase inhibitors” (Bioorg Med Chem Lett, 2020)
